In ChEMBL document CHEMBL1135169, “4,4-Disubstituted cyclohexylamine NK(1) receptor antagonists I” (Bioorg Med Chem Lett, 2002):

How the values were obtained:
Substance-P receptor [1] = target: T1, Substance-P receptor (Homo sapiens, UniProt P25103); assay: Displacement of [125I]-labeled substance P from the cloned Tachykinin receptor 1
Gerbillinae [2] = assay: Inhibitory dose required to produce blockade of foot-tapping activity induced by central infusion of NK1-agonist GR-73632; assay type: functional; conditions: read-out: ID50 (the source's name)
Gerbillinae [3] = assay: Inhibitory dose after 2 hours required to produce blockade of foot-tapping activity induced by central infusion of NK1-agonist GR-73632; assay type: functional; conditions: read-out: ID50 (the source's name)
Gerbillinae [4] = assay: Inhibitory dose after 24 hours required to produce blockade of foot-tapping activity induced by central infusion of NK1-agonist GR-73632; assay type: functional; conditions: read-out: ID50 (the source's name)
Substance-P receptor [5] = target: T1, Substance-P receptor; assay: Tested for inhibitory concentration expressed as displacement of [125I]-labeled substance P from the cloned human Tachykinin receptor 1 expressed in CHO cells; assay type: cell-based
Gerbillinae [6] = assay: Inhibitory activity when the NK1 agonist challenge was given 2 hr after dosing at 3 mg/kg, iv; assay type: functional
Substance-P receptor [7] = target: T1, Substance-P receptor; assay: Tested for inhibitory concentration expressed as displacement of [125I]-labeled substance P from the cloned Tachykinin receptor 1 expressed in CHO cells at dosage of 1000 nM; assay type: cell-based

T1 sequence (P25103 whole entry, the tested form may be a part): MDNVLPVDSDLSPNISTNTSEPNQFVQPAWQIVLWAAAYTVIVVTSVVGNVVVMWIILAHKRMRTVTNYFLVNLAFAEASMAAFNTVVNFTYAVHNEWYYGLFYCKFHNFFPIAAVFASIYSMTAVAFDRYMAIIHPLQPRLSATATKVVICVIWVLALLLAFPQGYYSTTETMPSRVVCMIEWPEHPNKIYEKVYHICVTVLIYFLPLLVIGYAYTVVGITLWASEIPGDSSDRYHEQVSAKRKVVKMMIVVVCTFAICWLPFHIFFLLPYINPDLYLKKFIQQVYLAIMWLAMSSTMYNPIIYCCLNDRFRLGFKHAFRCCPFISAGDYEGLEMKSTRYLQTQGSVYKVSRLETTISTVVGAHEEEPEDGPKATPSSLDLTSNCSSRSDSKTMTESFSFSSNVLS

Structure (SMILES) | IC50 (Substance-P receptor [1]) | further results
Fc1ccc(C2CCN(C3CCC(CCCc4cc(C(F)(F)F)cc(C(F)(F)F)c4)(c4ccccc4)CC3)CC2)cc1 (mixture of isomers) | 40 nM | –
O=C(OCc1cc(C(F)(F)F)cc(C(F)(F)F)c1)[C@]1(c2ccccc2)CC[C@@H](N2CCC(c3ccc(F)cc3)CC2)CC1 | 140 nM | –
CC(C(=O)N[C@]1(c2ccccc2)CC[C@@H](N2CCC(c3ccc(F)cc3)CC2)CC1)c1cc(C(F)(F)F)cc(C(F)(F)F)c1 (mixture of isomers) | 0.63 nM | ED50 (Gerbillinae [2]): 1.7 mg/kg; ED50 (Gerbillinae [3]): 0.6 mg/kg; ED50 (Gerbillinae [4]): 1.8 mg/kg
CC(OC[C@]1(c2ccccc2)CC[C@@H](N2CCC(c3ccc(F)cc3)CC2)CC1)c1cc(C(F)(F)F)cc(C(F)(F)F)c1 (mixture of isomers) | 5.3 nM | –
OCC(OC[C@]1(c2ccccc2)CC[C@@H](N2CCC(c3ccc(F)cc3)CC2)CC1)c1cc(C(F)(F)F)cc(C(F)(F)F)c1 (mixture of isomers) | 0.75 nM | –
Fc1ccc(C2CCN([C@H]3CC[C@@](COCc4cc(C(F)(F)F)cc(C(F)(F)F)c4)(c4ccccc4)CC3)CC2)cc1 | 59 nM | –
O=C(NC[C@]1(c2ccccc2)CC[C@@H](N2CCC(c3ccc(F)cc3)CC2)CC1)c1cc(C(F)(F)F)cc(C(F)(F)F)c1 | 250 nM | –
CC(C)(NC(=O)[C@]1(c2ccccc2)CC[C@@H](N2CCC(c3ccc(F)cc3)CC2)CC1)c1cc(C(F)(F)F)cc(C(F)(F)F)c1 | 0.62 nM | –
Fc1ccc(C2CCN([C@H]3CC[C@](COCc4cc(C(F)(F)F)cc(C(F)(F)F)c4)(c4ccccc4)CC3)CC2)cc1 | 4.2 nM | –
O=C(N[C@]1(c2ccccc2)CC[C@@H](N2CCC(c3ccc(F)cc3)CC2)CC1)C(CO)c1cc(C(F)(F)F)cc(C(F)(F)F)c1 (mixture of isomers) | 0.44 nM | –
FC(F)(F)c1cc(CO[C@H]2C3CCN(CC3)[C@H]2c2ccccc2)cc(C(F)(F)F)c1 | – | IC50 (Substance-P receptor [5]): 0.2 nM
O=C(NCc1cc(C(F)(F)F)cc(C(F)(F)F)c1)[C@]1(c2ccccc2)CC[C@@H](N2CCC(c3ccc(F)cc3)CC2)CC1 | 150 nM | –
O=C(NC[C@]1(c2ccccc2)CC[C@H](N2CCC(c3ccc(F)cc3)CC2)CC1)c1cc(C(F)(F)F)cc(C(F)(F)F)c1 | 6.3 nM | –
O=C(Cc1cc(C(F)(F)F)cc(C(F)(F)F)c1)N[C@]1(c2ccccc2)CC[C@H](N2CCC(c3ccc(F)cc3)CC2)CC1 | 0.7 nM | –
Fc1ccc(C2CCN([C@H]3CC[C@@](CNCc4cc(C(F)(F)F)cc(C(F)(F)F)c4)(c4ccccc4)CC3)CC2)cc1 | 82 nM | –
CC(C)(C(=O)N[C@]1(c2ccccc2)CC[C@@H](N2CCC(c3ccc(F)cc3)CC2)CC1)c1cc(C(F)(F)F)cc(C(F)(F)F)c1 | 0.49 nM | –
O=C(NCc1cc(C(F)(F)F)cc(C(F)(F)F)c1)[C@]1(c2ccccc2)CC[C@H](N2CCC(c3ccc(F)cc3)CC2)CC1 | 0.34 nM | ED50 (Gerbillinae [2]): 1.9 mg/kg; inhibition in vivo at 3 mg/kg (Gerbillinae [6]): 15%
O=C(OC[C@]1(c2ccccc2)CC[C@H](N2CCC(c3ccc(F)cc3)CC2)CC1)c1cc(C(F)(F)F)cc(C(F)(F)F)c1 | 120 nM | –
O=C(NC(CO)c1cc(C(F)(F)F)cc(C(F)(F)F)c1)[C@]1(c2ccccc2)CC[C@@H](N2CCC(c3ccc(F)cc3)CC2)CC1 (mixture of isomers) | 0.29 nM | –
O=C(NCc1cc(C(F)(F)F)cc(C(F)(F)F)c1)C1(c2ccccc2)CCNCC1 | 130 nM | –
O=C(OCc1cc(C(F)(F)F)cc(C(F)(F)F)c1)[C@]1(c2ccccc2)CC[C@H](N2CCC(c3ccc(F)cc3)CC2)CC1 | 2.5 nM | –
O=C(OC[C@]1(c2ccccc2)CC[C@@H](N2CCC(c3ccc(F)cc3)CC2)CC1)c1cc(C(F)(F)F)cc(C(F)(F)F)c1 | – | inhibition (Substance-P receptor [7]): 50%
CC(NC(=O)[C@]1(c2ccccc2)CC[C@@H](N2CCC(c3ccc(F)cc3)CC2)CC1)c1cc(C(F)(F)F)cc(C(F)(F)F)c1 (single isomer, unassigned; (-)) | 1.5 nM | –
Fc1ccc(C2CCN([C@H]3CC[C@](CNCc4cc(C(F)(F)F)cc(C(F)(F)F)c4)(c4ccccc4)CC3)CC2)cc1 | 1.7 nM | –
CC(NC(=O)[C@]1(c2ccccc2)CC[C@@H](N2CCC(c3ccc(F)cc3)CC2)CC1)c1cc(C(F)(F)F)cc(C(F)(F)F)c1 (stereo in doubt; (+)-29a) | 0.35 nM | –
O=C(Cc1cc(C(F)(F)F)cc(C(F)(F)F)c1)N[C@]1(c2ccccc2)CC[C@@H](N2CCC(c3ccc(F)cc3)CC2)CC1 | 85 nM | –
CC(NC(=O)[C@]1(c2ccccc2)CC[C@@H](N2CCC(c3ccc(F)cc3)CC2)CC1)c1cc(C(F)(F)F)cc(C(F)(F)F)c1 (mixture of isomers) | 0.77 nM | –
